In brackets after ≈: the same amount, converted by molar mass. Where two headings read alike, the source gives them in different places.
Legend:
Solubility at pH 6.8 = type: physicochemical
In short: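 Following the procedure of Zhou et al. (2007), compound solubility was determined at pH 6.8.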

PI3K alpha = molecular target: T1, PI3K alpha (Homo sapiens, UniProt P42336); test: PI3K alpha kinase assay (Kinase-Glo luminescence); type: biochemical
T1 construct: p85(iSH2) fusion partner (see partner chain) (N); His tag (C); made in house; host or cells: baculovirus; Tn5 (Trichoplusia ni) or TiniPro insect cells
In short: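 Luminescent ATP-depletion assay (Kinase-Glo) with 10 nM PI3Kα and 10 μg/mL phosphatidylinositol as lipid substrate at 1 μM ATP. Incubation lasts 60 min at room temperature.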

[1] = system: PKB Ser473 phosphorylation in Rat1-myr-HA-p110 alpha cells; test: Reverse protein array assay, PKB Ser473 phosphorylation in Rat1-myr-p110 alpha cells; type: cell-based; conditions: 0.5 h, pAkt Ser473, 30 minutes compound incubation, read-out: p-PKB IC50
In short: (§1)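 After at least 20 h of culture, the p110 isoform-transfected Rat1 lines receive compound in an 8-step dilution series, keeping DMSO at 0.2%, for 30 minutes. Cells are then lysed and lysates arrayed on chips for fluorescence detection of Ser473-phosphorylated PKB.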

[2] = system: PKB Ser473 phosphorylation in Rat1-myr-HA-p110 beta cells; test: Reverse protein array assay, PKB Ser473 phosphorylation in Rat1-myr-p110 beta cells; type: cell-based; conditions: 0.5 h, pAkt Ser473, 30 minutes incubation, read-out: p-PKB IC50
In short: as §1

[3] = system: PKB Ser473 phosphorylation in Rat1-myr-HA-p110 delta cells; test: Reverse protein array assay, PKB Ser473 phosphorylation in Rat1-myr-p110 delta cells; type: cell-based; conditions: read-out: p-PKB IC50
In short: as §1

[4] = pH 6.8, aqueous buffer, thermodynamic from solid, read-out: solubility

T1 sequence (P42336 with tags, fused parts or gaps limits assumed): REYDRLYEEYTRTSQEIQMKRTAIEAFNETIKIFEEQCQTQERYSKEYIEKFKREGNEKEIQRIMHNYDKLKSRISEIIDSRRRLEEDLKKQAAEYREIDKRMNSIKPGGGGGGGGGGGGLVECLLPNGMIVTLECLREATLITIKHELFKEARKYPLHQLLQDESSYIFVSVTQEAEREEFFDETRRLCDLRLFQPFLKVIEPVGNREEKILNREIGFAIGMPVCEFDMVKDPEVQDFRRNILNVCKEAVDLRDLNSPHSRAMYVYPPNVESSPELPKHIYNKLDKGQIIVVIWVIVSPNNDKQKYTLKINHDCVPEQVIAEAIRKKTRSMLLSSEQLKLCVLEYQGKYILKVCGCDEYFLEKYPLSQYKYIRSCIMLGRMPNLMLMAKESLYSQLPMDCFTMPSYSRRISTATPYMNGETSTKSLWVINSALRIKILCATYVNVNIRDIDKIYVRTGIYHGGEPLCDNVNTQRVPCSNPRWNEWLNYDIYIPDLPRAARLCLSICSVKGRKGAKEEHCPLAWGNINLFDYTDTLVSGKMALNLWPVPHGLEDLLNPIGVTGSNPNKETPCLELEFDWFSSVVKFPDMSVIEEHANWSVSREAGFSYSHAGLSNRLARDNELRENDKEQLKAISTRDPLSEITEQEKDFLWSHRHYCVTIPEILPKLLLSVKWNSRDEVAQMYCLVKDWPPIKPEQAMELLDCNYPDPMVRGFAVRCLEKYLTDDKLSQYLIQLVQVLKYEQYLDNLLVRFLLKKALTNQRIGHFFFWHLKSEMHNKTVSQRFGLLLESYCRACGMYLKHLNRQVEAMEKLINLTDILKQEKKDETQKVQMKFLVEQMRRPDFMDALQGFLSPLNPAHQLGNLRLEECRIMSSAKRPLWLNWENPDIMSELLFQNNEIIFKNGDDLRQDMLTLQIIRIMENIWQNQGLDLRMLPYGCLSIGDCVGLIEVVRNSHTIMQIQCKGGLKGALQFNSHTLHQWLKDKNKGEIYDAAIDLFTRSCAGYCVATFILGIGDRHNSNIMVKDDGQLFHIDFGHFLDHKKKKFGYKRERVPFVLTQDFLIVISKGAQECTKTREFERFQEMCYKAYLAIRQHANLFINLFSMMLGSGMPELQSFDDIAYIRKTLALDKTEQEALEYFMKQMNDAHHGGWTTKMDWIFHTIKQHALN

Compound | solubility (Solubility at pH 6.8; [4]) [µg/mL] | IC50 (PI3K alpha) [nM] | IC50 [1] [nM] | IC50 [2] [nM] | IC50 [3] [nM] | solubility (Solubility at pH 6.8; pH 6.8) [µg/mL]
Cc1nn(C)cc1-n1c(=O)n(C)c2cnc3ccc(-c4cccc(S(=O)(=O)N(C)C)c4)cc3c21 [Example 53.1, 3-[1-(1,3-Dimethyl-1H-pyrazol-4-yl)-3-methyl-2-oxo-2,3-dihydro-1H-imidazo[4,5-c]quinolin-8-yl]-N,N-dimethyl-benzenesulfonamide] | 3 (≈ 6.3 µM) | 16 | 15 | 43 | 128 | –
Cc1nn(C(C)C)cc1-n1c(=O)n(C)c2cnc3ccc(-c4ccc(N(C)C)nc4)cc3c21 [Example 4.1, 8-(6-Dimethylamino-pyridin-3-yl)-1-(1-isopropyl-3-methyl-1H-pyrazol-4-yl)-3-methyl-1,3-dihydro-imidazo[4,5-c]quinolin-2-one] | 336 (≈ 761 µM) | 60 | 16 | 19 | 59 | –
COc1ncc(-c2ccc3ncc4c(c3c2)n(-c2cn(C)nc2C)c(=O)n4C)cc1[N+](=O)[O-] [Example 66, 1-(1,3-dimethyl-1H-pyrazol-4-yl)-8-(6-methoxy-5-nitro-pyridin-3-yl)-3-methyl-1,3-dihydro-imidazo[4,5-c]quinolin-2-one] | – | 36 | 96 | 86 | 176 | 2 (≈ 4.49 µM)
COc1ccc(-c2ccc3ncc4c(c3c2)n(-c2cn(C)nc2C)c(=O)n4C)cc1OC [Example 1.8, 8-(3,4-Dimethoxy-phenyl)-1-(1,3-dimethyl-1H-pyrazol-4-yl)-3-methyl-1,3-dihydro-imidazo[4,5-c]quinolin-2-one] | 10 (≈ 23.3 µM) | 6 | 9 | 8 | 14 | –
COc1ncc(-c2ccc3ncc4c(c3c2)n(-c2cn(C)nc2C)c(=O)n4C)cc1NC(C)=O [Example 64, N-{5-[1-(1,3-Dimethyl-1H-pyrazol-4-yl)-3-methyl-2-oxo-2,3-dihydro-1H-imidazo[4,5-c]quinolin-8-yl]-2-methoxy-pyridin-3-yl}-acetamide] | 3 (≈ 6.56 µM) | 87 | 12 | 24 | 157 | –
Cc1nn(C)cc1-n1c(=O)n(C)c2cnc3ccc(-c4cnc5cc[nH]c5c4)cc3c21 [Example 99, 1-(1,3-Dimethyl-1H-pyrazol-4-yl)-3-methyl-8-(1H-pyrrolo[3,2-b]pyridin-6-yl)-1,3-dihydro-imidazo[4,5-c]quinolin-2-one] | – | 16 | 13 | 16 | 19 | 2 (≈ 4.88 µM)

Second part, the molecule after the results:

solubility (Solubility at pH 6.8; [4]) [µg/mL] | IC50 (PI3K alpha) [nM] | IC50 [1] [nM] | IC50 [2] [nM] | IC50 [3] [nM] | solubility (Solubility at pH 6.8; pH 6.8) [µg/mL] | Compound
– | 5 | 67 | 113 | 196 | 2 (≈ 4.99 µM) | CCOc1ccc(-c2ccc3ncc4[nH]c(=O)n(-c5cn(C)nc5C)c4c3c2)cn1 [Example 110, 1-(1,3-Dimethyl-1H-pyrazol-4-yl)-8-(6-ethoxy-pyridin-3-yl)-1,3-dihydro-imidazo[4,5-c]quinolin-2-one]
5 (≈ 10.9 µM) | 13 | 19 | 16 | 54 | – | Cc1nn(C)cc1-n1c(=O)n(C)c2cnc3ccc(-c4cnc(CO)c(OC(C)C)c4)cc3c21 [Example 190, 1-(1,3-Dimethyl-1H-pyrazol-4-yl)-8-(6-hydroxymethyl-5-isopropoxy-pyridin-3-yl)-3-methyl-1,3-dihydro-imidazo[4,5-c]quinolin-2-one]
– | 14 | < 5 | < 5 | 21 | 2 (≈ 4.79 µM) | CNc1ncc(-c2ccc3ncc4c(c3c2)n(-c2cn(C)nc2C)c(=O)n4C)cc1F [Example 141.2, 1-(1,3-Dimethyl-1H-pyrazol-4-yl)-8-(5-fluoro-6-methylamino-pyridin-3-yl)-3-methyl-1,3-dihydro-imidazo[4,5-c]quinolin-2-one]

From US20140005163A1 (NOVARTIS AG, priority 2010, published 2014)
